{"source": "patent US20260345517A1", "about": "“DOSAGE REGIMENS FOR TREATING STARGARDT DISEASE” (Alkeus Pharmaceuticals, Inc., priority 2024, published 2026)", "assay_type_in_all_cases": "in vivo, human", "key": {"[1]": {"test_system": "Stargardt disease patients", "assay": "TEASE-1: growth rate of atrophic retinal lesions by fundus autofluorescence imaging", "set-up": "Percentage Slowing of Atrophic Retinal Lesion Growth Rate With Gildeuretinol Acetate: concentration or dose not given beside the values", "settings": "for effect on retinal degeneration / growth of atrophic retinal lesions (in words): 14 to 24 mg daily, up to 24 months, vs placebo and natural history", "description": "The Tolerability and Effects of gildeuretinol acetate in Stargardt Disease (Clinical trial group 1 also known as TEASE-1) was a 24-month, multicenter, double-masked, placebo-controlled trial designed to evaluate the efficacy and safety of daily oral gildeuretinol acetate in slowing the growth of atrophic retinal lesions in Stargardt disease patients. The trial was conducted at multiple sites in the United States (NCT02402660).\nPatients 12 years or older, clinically diagnosed with Stargardt disease, with at least one ABCA4 mutation, at least one eye presenting with well-demarcated areas of reduced fundus autofluorescence, and with any visual acuity, were eligible.\nPatients were randomized to gildeuretinol acetate 14 mg capsules, gildeuretinol acetate 24 mg capsules, or placebo capsules, to be taken once daily for one year. After one year, 50% of randomly selected patients receiving placebo were crossed over in a 1:1 ratio to gildeuretinol acetate 14 mg capsules or gildeuretinol acetate 24 mg capsules for a second year.\nGildeuretinol acetate and placebo capsules were identical appearing capsules. Patients were advised to avoid vitamin A-containing supplements and liver-based products. Fruits and vegetables contain beta-carotene, not preformed vitamin A, and could be consumed without limitation. Trial visits occurred at 8 weeks and 6, 12, 18, and 24 months following screening and randomization.\nDeidentified retinal images of patients not enrolled in the trial were included as a natural history cohort. This natural history cohort comprised patients diagnosed with Stargardt disease of any age, with two or more longitudinal fundus autofluorescence images taken at least four months apart over a maximum period of 2.5 years.\nThe prespecified primary efficacy endpoint was the growth rate of the square root area of atrophic retinal lesions measured by fundus autofluorescence retinal imaging comparing gildeuretinol versus the untreated arm (placebo combined with natural history). Only well-delineated and homogeneous retinal atrophic lesions≥0.2 mm^2 with a summed area≥0.5 mm^2 were included in the primary analysis.\nThe primary endpoint analysis used a linear mixed-effect model (LMEM) with repeated measures, conferring a higher power to detect smaller effects. All observed data, including both eyes, were utilized. Treatment duration was computed as a continuous measure for each visit based on years since randomization. Adjustments for baseline retinal atrophy used the baseline atrophic retinal lesion size as a fixed effect in the LMEM. Additional fixed effects included treatment arm, treatment duration, and interaction between the treatment arm and treatment duration. Random effects included patient, eye, grader to adjust for correlation between eyes within a patient, graders' assessment of an eye, and observations of the same eye over time. A random effect slope term was added to the effect of treatment duration. Patients who crossed over to gildeuretinol acetate after year one were included in the untreated arm from baseline to year one, then in the gildeuretinol acetate arm from […] upon crossing over to gildeuretinol acetate. The full analysis set (FAS) comprised all randomized patients who received at least one dose of the study drug.\nGrowth rates of atrophic retinal lesions were computed as two segmented lines over the 24-month treatment period; the first segment was between 0 and 6 months, and the second was between 6 and 24 months. All available data between 0 and 24 months was used to compute the slope of each segment. The primary efficacy endpoint was the slope of the second segment. No constraints were imposed on the Y-intercept. All growth rates were calculated on a per-year basis.\nNo imputations were made for missing data because the LMEM yields valid inferences under the assumption of a missing-at-random mechanism. […]"}, "[2]": {"test_system": "asymptomatic Stargardt disease patients", "assay": "TEASE-3: fundus autofluorescence (FAF) imaging", "settings": "14 mg daily, two to four years, three patients", "description": "(§1) The tolerability and effects of gildeuretinol acetate in Stargardt Disease (Clinical trial group 3 also known as TEASE-3) study was an open-label, multicenter, case control study designed to evaluate the efficacy and safety of gildeuretinol acetate on the progression of Stargardt disease in asymptomatic individuals. The trial was conducted at multiple sites in the United States.\nTo assess the safety and efficacy of gildeuretinol acetate in preventing vision loss in asymptomatic individuals, gildeuretinol acetate 14 mg capsules was administered to individuals showing early signs of retinal damage while maintaining approximately 20/20 vision and no subjective loss of vision. […]\nDisease progression was monitored by best-corrected visual acuity (BCVA) reported in number of Early Treatment Diabetic Retinopathy Study (ETDRS) letters, fundus autofluorescence (FAF) imaging, loss of photoreceptors (as measured by the ellipsoid zone band loss) by optical coherence tomography (OCT) according to literature (1-3) and retinal sensitivity by microperimetry. […]"}, "[3]": {"test_system": "asymptomatic Stargardt disease patients", "assay": "TEASE-3: best-corrected visual acuity (BCVA)", "settings": "14 mg daily", "description": "as §1\nTo assess the safety and efficacy of gildeuretinol acetate in preventing vision loss in asymptomatic individuals, gildeuretinol acetate 14 mg capsules was administered to individuals showing early signs of retinal damage while maintaining approximately 20/20 vision and no subjective loss of vision. […] Based on the above family history and clinical observations, the individuals were likely to develop retinal lesions, loss of photoreceptors, drops in retinal sensitivity, loss of visual acuity, indicating the onset of symptoms, i.e. a progression to the symptomatic phase, including vision loss within two years, mirroring the progression observed in their older siblings.\nPatients received gildeuretinol acetate 14 mg capsules, to be taken orally once daily. Trial visits occurred every 6 months approximately following screening and treatment start visits.\nDisease progression was monitored by best-corrected visual acuity (BCVA) reported in number of Early Treatment Diabetic Retinopathy Study (ETDRS) letters, fundus autofluorescence (FAF) imaging, loss of photoreceptors (as measured by the ellipsoid zone band loss) by optical coherence tomography (OCT) according to literature (1-3) and retinal sensitivity by microperimetry.\nMeasurements from the left and right eye for each patient were averaged for each visit to produce a single statistical unit for both eyes(4). For segmented linear regressions, knot times were selected so that three visits were included in the first segment."}}, "note": "“Also recorded” adds a separate entry of the source."}
{"smiles": "CC(=O)OC/C=C(C)/C=C/C=C(C)/C=C/C1=C(C)CCCC1(C)C", "note": "[gildeuretinol acetate, C20-D3-retinol acetate]", "values": [{"measurement": "effect on retinal degeneration / growth of atrophic retinal lesions (in words)", "setting": "[1]", "result": "met its prespecified primary efficacy endpoint, slowing the mean growth rate of atrophic retinal lesions relative to placebo and natural history; also recorded: slowed the expansion of retinal atrophic lesions; also recorded: slowed the progression of retinal degeneration; also recorded: slows retinal degeneration"}, {"measurement": "effect on retinal degeneration / growth of atrophic retinal lesions (in words)", "setting": "[1]; listed as Gildeuretinol acetate", "result": "met its prespecified primary efficacy endpoint, slowing the mean growth rate of atrophic retinal lesions"}, {"measurement": "Percentage Slowing of Atrophic Retinal Lesion Growth Rate With Gildeuretinol Acetate", "setting": "[1]; crossover patients: 12 months placebo vs. 12 months treatment", "result": 21, "unit": "%"}, {"measurement": "estimated treatment effect (slowing of atrophic retinal lesion growth)", "setting": "[1]; depending on the calculation method", "result": "20% to 30"}, {"measurement": "Percentage Slowing of Atrophic Retinal Lesion Growth Rate With Gildeuretinol Acetate", "setting": "[1]; excluding 2 natural history cases < 18 years old, 9 natural histories > 60 years old", "result": 21, "unit": "%"}, {"measurement": "Percentage Slowing of Atrophic Retinal Lesion Growth Rate With Gildeuretinol Acetate", "setting": "[1]; excluding 3 randomized patients with one confirmed mutation", "result": 20, "unit": "%"}, {"measurement": "Percentage Slowing of Atrophic Retinal Lesion Growth Rate With Gildeuretinol Acetate", "setting": "[1]; excluding 13 natural history cases without any confirmed ABCA4 mutations and 6 with one confirmed mutation", "result": 20, "unit": "%"}, {"measurement": "Percentage Slowing of Atrophic Retinal Lesion Growth Rate With Gildeuretinol Acetate", "setting": "[1]; excluding 16 natural histories with only two follow up time points", "result": 20, "unit": "%"}, {"measurement": "Percentage Slowing of Atrophic Retinal Lesion Growth Rate With Gildeuretinol Acetate", "setting": "[1]; excluding natural history, randomized patients only, one slope (mm^2)", "result": 30, "unit": "%"}, {"measurement": "Percentage Slowing of Atrophic Retinal Lesion Growth Rate With Gildeuretinol Acetate", "setting": "[1]; excluding natural history, randomized patients only, two slopes (mm^2)", "result": 23, "unit": "%"}, {"measurement": "growth rate of atrophic retinal lesions", "setting": "[1]; gildeuretinol acetate arm (14 mg and 24 mg pooled), square root area, slope 6 to 24 months", "result": 0.19, "unit": "mm/year"}, {"measurement": "Percentage Slowing of Atrophic Retinal Lesion Growth Rate With Gildeuretinol Acetate", "setting": "[1]; using a single-slope from 0 to 24 months (mm^2)", "result": 31, "unit": "%"}, {"measurement": "Percentage Slowing of Atrophic Retinal Lesion Growth Rate With Gildeuretinol Acetate", "setting": "[1]; using untransformed areas of atrophic lesions (mm^2)", "result": 28, "unit": "%"}, {"measurement": "difference in growth rate of atrophic retinal lesions versus control", "setting": "[1]; vs placebo + natural history, 95% CI 0.03 to 0.07", "result": 0.05, "unit": "mm/year"}, {"measurement": "changes by FAF (flecks, autofluorescence, atrophy)", "setting": "[2]", "result": "none of the three treated asymptomatic Stargardt disease patients exhibited changes by FAF; also recorded: absence of FAF changes in all three Stargardt disease patients"}, {"measurement": "BCVA of treated siblings", "setting": "[3]; 2 to 4 years", "result": "88±4", "unit": "ETDRS letters"}, {"measurement": "average improvement of BCVA versus untreated siblings", "setting": "[3]; age-matched untreated siblings", "result": "22±13", "unit": "letters"}, {"measurement": "average improvement of BCVA versus untreated siblings, lines of vision on the ETDRS eyechart", "setting": "[3]; age-matched untreated siblings", "result": "four"}]}
